Results reported in patent publication US12077503B2, “Substituted cyclic amides and their use as herbicides” (FMC CORPORATION, priority 2015, dated 2024).

Key:
Assay type in all cases: in vivo
[1] = system: Kochia (Kochia scoparia); test: Test A preemergence; conditions: Bassia scoparia, pre-emergence, 240 h, Preemergence
Procedure, shortened: (§1)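 Seeds sprayed preemergence with a directed soil spray, or plants at 2 to 10 cm height and one- to two-leaf stage sprayed postemergence, with test chemicals in a non-phytotoxic solvent mixture containing surfactant, in loam soil–sand blend. Injury rated visually against untreated controls after about 10 d in greenhouse, 0 (no effect) to 100 (complete control).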

[2] = system: barnyardgrass (Echinochloa crus-galli); test: Test A preemergence; conditions: Echinochloa crus-galli, pre-emergence, 240 h, Preemergence
Procedure, shortened: as §1

[3] = system: giant foxtail (Setaria faberii); test: Test A preemergence; conditions: Setaria faberi, pre-emergence, 240 h, Preemergence
Procedure, shortened: as §1

[4] = system: pigweed (Amaranthus retroflexus); test: Test A preemergence; conditions: Amaranthus retroflexus, pre-emergence, 240 h, Preemergence
[5] = system: ragweed (common ragweed, Ambrosia elatior); test: Test A preemergence; conditions: Ambrosia artemisiifolia, pre-emergence, 240 h, Preemergence
Procedure, shortened: as §1

[6] = system: ryegrass, Italian (Italian ryegrass, Lolium multiflorum); test: Test A preemergence; conditions: Lolium multiflorum, pre-emergence, 240 h, Preemergence
Procedure, shortened: as §1

[7] = system: Galium (catchweed bedstraw, Galium aparine); test: Test A postemergence; conditions: Galium, post-emergence, 240 h, Postemergence, read-out: Galium plant response rating (0 to 100 scale)
Procedure, shortened: as §1

[8] = system: Kochia (Kochia scoparia); test: Test A postemergence; conditions: Bassia scoparia, post-emergence, 240 h, Postemergence, read-out: Kochia plant response rating (0 to 100 scale)
Procedure, shortened: as §1

[9] = system: barnyardgrass (Echinochloa crus-galli); test: Test A postemergence; conditions: Echinochloa crus-galli, post-emergence, 240 h, Postemergence
Procedure, shortened: as §1

[10] = system: blackgrass (Alopecurus myosuroides); test: Test A postemergence; conditions: Alopecurus myosuroides, post-emergence, 240 h, Postemergence, read-out: Blackgrass plant response rating (0 to 100 scale)
Procedure, shortened: as §1

[11] = system: corn (Zea mays); test: Test A postemergence; conditions: Zea mays, post-emergence, 240 h, Postemergence, read-out: Corn plant response rating (0 to 100 scale)
Procedure, shortened: as §1

[12] = system: giant foxtail (Setaria faberii); test: Test A postemergence; conditions: Setaria faberi, post-emergence, 240 h, Postemergence, read-out: Foxtail, Giant plant response rating (0 to 100 scale)
Procedure, shortened: as §1

[13] = system: pigweed (Amaranthus retroflexus); test: Test A postemergence; conditions: Amaranthus retroflexus, post-emergence, 240 h, Postemergence, read-out: Pigweed plant response rating (0 to 100 scale)
Procedure, shortened: as §1

[14] = system: ragweed (common ragweed, Ambrosia elatior); test: Test A postemergence; conditions: Ambrosia artemisiifolia, post-emergence, 240 h, Postemergence, read-out: Ragweed plant response rating (0 to 100 scale)
Procedure, shortened: as §1

[15] = system: ryegrass, Italian (Italian ryegrass, Lolium multiflorum); test: Test A postemergence; conditions: Lolium multiflorum, post-emergence, 240 h, Postemergence, read-out: Ryegrass, Italian plant response rating (0 to 100 scale)
Procedure, shortened: as §1

[16] = system: wheat (Triticum aestivum); test: Test A postemergence; conditions: Triticum aestivum, post-emergence, 240 h, Postemergence, read-out: Wheat plant response rating (0 to 100 scale)
Procedure, shortened: as §1

[17] = system: barnyardgrass (Echinochloa crus-galli); test: Test B flooded paddy test; conditions: Echinochloa crus-galli, 360 h, Flood, 250 g ai/ha; visually evaluated after 13 to 15 d; read-out: Plant response rating, Barnyardgrass (0 to 100 scale where 0 is no effect and 100 is complete control)
Procedure, shortened: (§2)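 Flooding to 3 cm over soil accompanied treatment, which consisted of adding compound to the standing water around 2-leaf plants; depth was then maintained. Visual assessment versus controls followed at 13 to 15 d (scale 0–100, 0 meaning no effect).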

[18] = system: ducksalad (Heteranthera limosa); test: Test B flooded paddy test; conditions: Heteranthera limosa, 360 h, Flood, 250 g ai/ha; visually evaluated after 13 to 15 d; read-out: Plant response rating, Ducksalad (0 to 100 scale where 0 is no effect and 100 is complete control)
Procedure, shortened: as §2

[19] = system: rice (Oryra sativa); test: Test B flooded paddy test; conditions: Oryza sativa, 360 h, Flood, 250 g ai/ha; visually evaluated after 13 to 15 d; read-out: Plant response rating, Rice (0 to 100 scale where 0 is no effect and 100 is complete control)
Procedure, shortened: as §2

[20] = system: sedge, umbrella (small-flower umbrella sedge, Cyperus difformis); test: Test B flooded paddy test; conditions: Cyperus difformis, 360 h, Flood, 250 g ai/ha; visually evaluated after 13 to 15 d; read-out: Plant response rating, Sedge, Umbrella (0 to 100 scale where 0 is no effect and 100 is complete control)
Procedure, shortened: as §2

[21] = 125 g ai/ha, visual rating about 10 d after treatment
[22] = 31 g ai/ha, 0 is no effect, 100 is complete control

With `COc1c([C@H]2CN(C)C(=O)[C@@H]2C(=O)Nc2ccccc2F)cccc1C(F)(F)F` [Compound 1338] the pest or weed control at 31 g/ha ([1]; 31 g ai/ha, 0 to 100 scale where 0 is no effect and 100 is complete control, read-out: Kochia plant response rating) was 0%, the pest or weed control at 125 g/ha ([1]; 125 g ai/ha, 0 to 100 scale (0 no effect, 100 complete control), read-out: Plant response rating, Kochia) was 0% and the pest or weed control at 31 g/ha ([2]; 31 g ai/ha, 0 to 100 scale where 0 is no effect and 100 is complete control, read-out: Barnyardgrass plant response rating) was 90%. It also gave a pest or weed control at 125 g/ha ([2]; 125 g ai/ha, 0 to 100 scale (0 no effect, 100 complete control), read-out: Plant response rating, Barnyardgrass) of 100%, a pest or weed control at 31 g/ha ([3]; 31 g ai/ha, 0 to 100 scale where 0 is no effect and 100 is complete control, read-out: Foxtail, Giant plant response rating) of 80% and a pest or weed control at 125 g/ha ([3]; 125 g ai/ha, 0 to 100 scale (0 no effect, 100 complete control), read-out: Plant response rating, Foxtail, Giant) of 90%. It also gave a pest or weed control at 31 g/ha ([4]; 31 g ai/ha, 0 to 100 scale where 0 is no effect and 100 is complete control, read-out: Pigweed plant response rating) of 0%, a pest or weed control at 125 g/ha ([4]; 125 g ai/ha, 0 to 100 scale (0 no effect, 100 complete control), read-out: Plant response rating, Pigweed) of 0% and a pest or weed control at 31 g/ha ([5]; 31 g ai/ha, 0 to 100 scale where 0 is no effect and 100 is complete control, read-out: Ragweed plant response rating) of 0%. For the same compound, the pest or weed control at 125 g/ha ([5]; 125 g ai/ha, 0 to 100 scale (0 no effect, 100 complete control), read-out: Plant response rating, Ragweed) was 0%, the pest or weed control at 31 g/ha ([6]; 31 g ai/ha, 0 to 100 scale where 0 is no effect and 100 is complete control, read-out: Ryegrass, Italian plant response rating) was 0% and the pest or weed control at 125 g/ha ([6]; 125 g ai/ha, 0 to 100 scale (0 no effect, 100 complete control), read-out: Plant response rating, Ryegrass, Italian) was 0%. It also gave a pest or weed control at 125 g/ha [7, 21] of 30%, a pest or weed control at 31 g/ha [7, 22] of 0% and a pest or weed control at 125 g/ha [8, 21] of 0%. The pest or weed control at 31 g/ha [8, 22] was 0%, the pest or weed control at 125 g/ha ([9]; 125 g ai/ha, visual rating about 10 d after treatment, read-out: Barnyardgrass plant response rating (0 to 100 scale, 0 no effect, 100 complete control)) was 80% and the pest or weed control at 31 g/ha ([9]; 31 g ai/ha, 0 is no effect, 100 is complete control, read-out: Barnyardgrass plant response rating (0 to 100 scale)) was 70%. It also gave a pest or weed control at 125 g/ha [10, 21] of 0%, a pest or weed control at 31 g/ha [10, 22] of 0% and a plant injury at 125 g/ha [11, 21] of 0%. For the same compound, the plant injury at 31 g/ha [11, 22] was 0%, the pest or weed control at 125 g/ha [12, 21] was 80% and the pest or weed control at 31 g/ha [12, 22] was 50%. It also gave a pest or weed control at 125 g/ha [13, 21] of 0%, a pest or weed control at 31 g/ha [13, 22] of 0% and a pest or weed control at 125 g/ha [14, 21] of 0%. For the same compound, the pest or weed control at 31 g/ha [14, 22] was 0%, the pest or weed control at 125 g/ha [15, 21] was 0% and the pest or weed control at 31 g/ha [15, 22] was 0%. The plant injury at 125 g/ha [16, 21] was 0%, the plant injury at 31 g/ha [16, 22] was 0% and the pest or weed control at 250 g/ha [17] was 90%. For the same compound, the pest or weed control at 250 g/ha [18] was 100%, the pest or weed control at 250 g/ha [19] was 25% and the pest or weed control at 250 g/ha [20] was 0%.
